Reference: patent US7432300B2, “Gossypol co-crystals and the use thereof” (The Regents of the University of Michigan, priority 2004, dated 2008)

Type: physicochemical
Description: (−)-Gossypol acetic acid co-crystals were yellow or pale yellow and needle shaped. […] The co-crystals were insoluble in water. The uncorrected melting point of the co-crystals was determined to be 178-180° C. using a Mel-Temp apparatus.

## Cc1cc2c(C(C)C)c(O)c(O)c(C=O)c2c(O)c1-c1c(C)cc2c(C(C)C)c(O)c(O)c(C=O)c2c1O [(−)-Gossypol acetic acid co-crystals, (−)-gossypol acetic acid]
  solubility in acetone: readily soluble
  solubility in chloroform: slightly soluble
  solubility in ethanol: slightly soluble
  solubility in ether: readily soluble
  solubility in petroleum: sparsely soluble
  solubility in water: insoluble
